Results from patent US6355799B1, “Substituted benzene compounds, process for their preparation, and herbicidal and defoliant compositions containing them” (ISK Americas Incorporated, priority 1997, dated 2002).

Columns and labels:
Assay type in all cases: in vivo
[1] = test system: common ragweed (Ambrosia artemisizfolia L., AMBEL); test: Post-emerge test, greenhouse herbicide activity screening; settings: post-emerge, 14 days after application, rating scale 0-100
Method in brief: (§1)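 Herbicidal damage is scored 0 (none) to 100 (complete plant death) two weeks after a simulated field spray. Rates span 15–1000 g ai/ha, delivered in acetone at 187 l/ha. For post-emergence treatments, plants have 2–3 leaves and the spray carries 0.25% v/v non-ionic surfactant.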

[2] = test system: velvetleaf (Abutilon theophrasti, ABUTH); test: as above; settings: post-emerge, 14 days after application, rating scale 0-100
Method in brief: as §1

[3] = test system: barnyardgrass (Echinochloa crus-galli, ECHCG); test: as above; settings: post-emerge, 14 days after application, rating scale 0-100
Method in brief: as §1

[4] = test system: sicklepod (Cassia obtusifolia, CASOB); test: as above; settings: post-emerge, 14 days after application, rating scale 0-100
Method in brief: as §1

[5] = test system: ivyleaf morningglory (Ipomoea hederacea, IPOHE); test: as above; settings: post-emerge, 14 days after application, rating scale 0-100
Method in brief: as §1

[6] = test system: large crabgrass (Digitaria sanguinalis, DIGSA); test: as above; settings: post-emerge, 14 days after application, rating scale 0-100
Method in brief: as §1

[7] = test system: lambsquarters (Chenopodium album, CHEAL); test: as above; settings: post-emerge, 14 days after application, rating scale 0-100
Method in brief: as §1

[8] = test system: redroot pigweed (Amaranthus retroflexus, AMARE); test: as above; settings: post-emerge, 14 days after application, rating scale 0-100
Method in brief: as §1

[9] = test system: johnsongrass (Sorghum halepense, SORHA); test: as above; settings: post-emerge, 14 days after application, rating scale 0-100
Method in brief: as §1

[10] = test system: redroot pigweed (Amaranthus retroflexus, AMARE); test: Pre-emerge test, greenhouse herbicide activity screening; settings: rated 14 days after application, 0 = no damage, 100 = complete death
Method in brief: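 Visual ratings on a 0-100 scale (0 no damage, 100 all plants dead) were taken at 14 days after treatment. Rates of 15-1000 g ai/ha in acetone, 187 l/ha, were sprayed onto soil one day after planting (pre-emerge) or onto 2-3 leaf plants with 0.25% v/v surfactant (post-emerge).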

[11] = test system: common ragweed (Ambrosia artemisizfolia L., AMBEL); test: as above; settings: rated 14 days after application, 0 = no damage, 100 = complete death
Method in brief: (§2)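 Compounds in acetone were track-sprayed at 15-1000 g ai/ha (187 l/ha) on sandy loam pots: pre-emerge one day after seeding, post-emerge at 2-3 leaf stage with 0.25% v/v non-ionic surfactant. Phytotoxicity was rated 14 days later on a 0 (no damage) to 100 (complete death) scale.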

[12] = test system: velvetleaf (Abutilon theophrasti, ABUTH); test: as above; settings: rated 14 days after application, 0 = no damage, 100 = complete death
Method in brief: as §2

[13] = test system: barnyardgrass (Echinochloa crus-galli, ECHCG); test: as above; settings: rated 14 days after application, 0 = no damage, 100 = complete death
Method in brief: as §2

[14] = test system: green foxtail (Setaria viridis, SETVI); test: as above; settings: rated 14 days after application, 0 = no damage, 100 = complete death
Method in brief: as §2

[15] = test system: sicklepod (Cassia obtusifolia, CASOB); test: as above; settings: rated 14 days after application, 0 = no damage, 100 = complete death
Method in brief: as §2

[16] = test system: ivyleaf morningglory (Ipomoea hederacea, IPOHE); test: as above; settings: rated 14 days after application, 0 = no damage, 100 = complete death
Method in brief: as §2

[17] = test system: large crabgrass (Digitaria sanguinalis, DIGSA); test: as above; settings: rated 14 days after application, 0 = no damage, 100 = complete death
Method in brief: as §2

[18] = test system: lambsquarters (Chenopodium album, CHEAL); test: as above; settings: rated 14 days after application, 0 = no damage, 100 = complete death
Method in brief: as §2

[19] = test system: johnsongrass (Sorghum halepense, SORHA); test: as above; settings: rated 14 days after application, 0 = no damage, 100 = complete death
Method in brief: as §2

[20] = test system: upland rice (Oryza sp., var. Tebonnet, RICE); test: Post-emerge test, crop safety; settings: post-emerge, 14 days after application, rating scale 0-100
Method in brief: as §2

[21] = test system: field corn (Zea mays L., var. Dekalb 535, CORN); test: Post-emerge test, crop safety; settings: post-emerge, 14 days after application, rating scale 0-100
Method in brief: as §2

[22] = test system: upland rice (Oryza sp., var. Tebonnet, RICE); test: Pre-emerge test, crop safety; settings: rated 14 days after application, 0 = no damage, 100 = complete death
Method in brief: (§3)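 Compounds in acetone were track-sprayed at 187 l/ha, 15–1000 g ai/ha, onto sandy loam pots. Pre-emerge seeds were sown one day before spraying, with surface watering afterwards. Post-emerge plants were at the 2–3 leaf stage and sprayed with 0.25% v/v non-ionic surfactant. Injury was rated 0–100 at 14 days.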

[23] = test system: field corn (Zea mays L., var. Dekalb 535, CORN); test: Pre-emerge test, crop safety; settings: rated 14 days after application, 0 = no damage, 100 = complete death
Method in brief: as §3

## COc1c(Cl)cc(F)c(-n2c(=O)cc(C(F)(F)F)n(C)c2=O)c1NC(=O)c1cccnc1 [2-98]
[1]; 63 g ai/ha
  phytotoxicity rating AMBEL: 80
[1]; 250 g ai/ha
  phytotoxicity rating AMBEL: 100
[2]; 63 g ai/ha
  phytotoxicity rating ABUTH: 100
[2]; 250 g ai/ha
  phytotoxicity rating ABUTH: 100
[3]; 63 g ai/ha
  phytotoxicity rating ECHCG: 0
[3]; 250 g ai/ha
  phytotoxicity rating ECHCG: 20
[4]; 63 g ai/ha
  phytotoxicity rating CASOB: 100
[4]; 250 g ai/ha
  phytotoxicity rating CASOB: 100
[5]; 63 g ai/ha
  phytotoxicity rating IPOHE: 100
[5]; 250 g ai/ha
  phytotoxicity rating IPOHE: 100
[6]; 63 g ai/ha
  phytotoxicity rating DIGSA: 0
[6]; 250 g ai/ha
  phytotoxicity rating DIGSA: 50
[7]; 63 g ai/ha
  phytotoxicity rating CHEAL: 70
[7]; 250 g ai/ha
  phytotoxicity rating CHEAL: 90
[8]; 63 g ai/ha
  phytotoxicity rating AMARE: 75
[8]; 250 g ai/ha
  phytotoxicity rating AMARE: 100
[9]; 63 g ai/ha
  phytotoxicity rating SORHA: 0
[9]; 250 g ai/ha
  phytotoxicity rating SORHA: 90
[10]; 63 g ai/ha
  Pre-emerge Herbicidal Activity, phytotoxicity rating (0-100), AMARE: 100
[10]; 250 g ai/ha
  Pre-emerge Herbicidal Activity, phytotoxicity rating (0-100), AMARE: 100
[11]; 63 g ai/ha
  Pre-emerge Herbicidal Activity, phytotoxicity rating (0-100), AMBEL: 100
[11]; 250 g ai/ha
  Pre-emerge Herbicidal Activity, phytotoxicity rating (0-100), AMBEL: 100
[12]; 63 g ai/ha
  Pre-emerge Herbicidal Activity, phytotoxicity rating (0-100), ABUTH: 100
[12]; 250 g ai/ha
  Pre-emerge Herbicidal Activity, phytotoxicity rating (0-100), ABUTH: 100
[13]; 63 g ai/ha
  Pre-emerge Herbicidal Activity, phytotoxicity rating (0-100), ECHCG: 30
[13]; 250 g ai/ha
  Pre-emerge Herbicidal Activity, phytotoxicity rating (0-100), ECHCG: 100
[14]; 63 g ai/ha
  Pre-emerge Herbicidal Activity, phytotoxicity rating (0-100), SETVI: 80
[14]; 250 g ai/ha
  Pre-emerge Herbicidal Activity, phytotoxicity rating (0-100), SETVI: 100
[15]; 63 g ai/ha
  Pre-emerge Herbicidal Activity, phytotoxicity rating (0-100), CASOB: 100
[15]; 250 g ai/ha
  Pre-emerge Herbicidal Activity, phytotoxicity rating (0-100), CASOB: 100
[16]; 63 g ai/ha
  Pre-emerge Herbicidal Activity, phytotoxicity rating (0-100), IPOHE: 100
[16]; 250 g ai/ha
  Pre-emerge Herbicidal Activity, phytotoxicity rating (0-100), IPOHE: 100
[17]; 63 g ai/ha
  Pre-emerge Herbicidal Activity, phytotoxicity rating (0-100), DIGSA: 40
[17]; 250 g ai/ha
  Pre-emerge Herbicidal Activity, phytotoxicity rating (0-100), DIGSA: 95
[18]; 63 g ai/ha
  Pre-emerge Herbicidal Activity, phytotoxicity rating (0-100), CHEAL: 100
[18]; 250 g ai/ha
  Pre-emerge Herbicidal Activity, phytotoxicity rating (0-100), CHEAL: 100
[19]; 63 g ai/ha
  Pre-emerge Herbicidal Activity, phytotoxicity rating (0-100), SORHA: 30
[19]; 250 g ai/ha
  Pre-emerge Herbicidal Activity, phytotoxicity rating (0-100), SORHA: 95
[20]; 63 g ai/ha
  phytotoxicity rating RICE: 40
[20]; 250 g ai/ha
  phytotoxicity rating RICE: 90
[21]; 63 g ai/ha
  phytotoxicity rating CORN: 20
[21]; 250 g ai/ha
  phytotoxicity rating CORN: 90
[22]; 63 g ai/ha
  Pre-emerge phytotoxicity rating (0-100), crop damage, RICE: 60
[22]; 250 g ai/ha
  Pre-emerge phytotoxicity rating (0-100), crop damage, RICE: 90
[23]; 63 g ai/ha
  Pre-emerge phytotoxicity rating (0-100), crop damage, CORN: 70
[23]; 250 g ai/ha
  Pre-emerge phytotoxicity rating (0-100), crop damage, CORN: 90
